Data from the NIST ThermoML archive (doi:10.1021/acs.jced.5b00201).
Numbers after ± are expanded uncertainties.

Experiment: xn = mol fraction of the nth substance listed
Settings: 298.2 K, 100 kPa, Liquid, Pycnometric method

Cc1ccc(-c2ncc(Cl)cc2-c2ccc(S(C)(=O)=O)cc2)cn1 [etoricoxib] + CCO
mass density (x1 = 0.05374): 819.9 ± 0.7 kg/m3

Cc1ccc(-c2ncc(Cl)cc2-c2ccc(S(C)(=O)=O)cc2)cn1 [etoricoxib] + C1COCCO1
mass density (x1 = 0.07301): 1026.8 ± 0.9 kg/m3

Cc1ccc(-c2ncc(Cl)cc2-c2ccc(S(C)(=O)=O)cc2)cn1 [etoricoxib] + C[S+](C)[O-]
mass density (x1 = 0.06044): 1105.6 ± 1 kg/m3

Cc1ccc(-c2ncc(Cl)cc2-c2ccc(S(C)(=O)=O)cc2)cn1 [etoricoxib] + OCCCCO
mass density (x1 = 0.07226): 1039.8 ± 0.9 kg/m3

Cc1ccc(-c2ncc(Cl)cc2-c2ccc(S(C)(=O)=O)cc2)cn1 [etoricoxib] + CN(C)C=O
mass density (x1 = 0.06899): 952.7 ± 0.8 kg/m3

Cc1ccc(-c2ncc(Cl)cc2-c2ccc(S(C)(=O)=O)cc2)cn1 [etoricoxib] + CC(=O)N(C)C
mass density (x1 = 0.08112): 942.7 ± 0.8 kg/m3

Cc1ccc(-c2ncc(Cl)cc2-c2ccc(S(C)(=O)=O)cc2)cn1 [etoricoxib] + O
mass density (x1 = 1.56e-05): 994.8 ± 0.8 kg/m3
